Results from PMC8397425, “A Strategy to Conjugate Bioactive Fragments to Cytotoxic Diiron Bis(cyclopentadienyl) Complexes” (Organometallics, 2021).
Several values for one entry are separate records, joined by “and”; a condition that tells them apart may be missing. Identical values can stand only once. Like-named read-outs stand apart in the source and are kept apart here.

Experiments:
[1] = test system: Human Ovarian Carcinoma (A2780) cell line; conditions: 72 h exposure, cited from earlier work
[2] = test system: Human Ovarian Carcinoma Cisplatin Resistant (A2780cisR) cell line; conditions: 72 h exposure, cited from earlier work
[3] = test system: Human Embryonic Kidney 293T (HEK 293T) cell line; conditions: 72 h exposure; cited from earlier work
[4] = target: T1, COX-2 enzyme (Homo sapiens, UniProt P35354); assay: COX-2 enzyme inhibition assay (fluorimetric); type: biochemical; conditions: residual enzyme activity, 25 °C, pH 8, mean ± SD
T1 construct: purchased Cayman Chemical Company
T1 sequence (P35354 18-604): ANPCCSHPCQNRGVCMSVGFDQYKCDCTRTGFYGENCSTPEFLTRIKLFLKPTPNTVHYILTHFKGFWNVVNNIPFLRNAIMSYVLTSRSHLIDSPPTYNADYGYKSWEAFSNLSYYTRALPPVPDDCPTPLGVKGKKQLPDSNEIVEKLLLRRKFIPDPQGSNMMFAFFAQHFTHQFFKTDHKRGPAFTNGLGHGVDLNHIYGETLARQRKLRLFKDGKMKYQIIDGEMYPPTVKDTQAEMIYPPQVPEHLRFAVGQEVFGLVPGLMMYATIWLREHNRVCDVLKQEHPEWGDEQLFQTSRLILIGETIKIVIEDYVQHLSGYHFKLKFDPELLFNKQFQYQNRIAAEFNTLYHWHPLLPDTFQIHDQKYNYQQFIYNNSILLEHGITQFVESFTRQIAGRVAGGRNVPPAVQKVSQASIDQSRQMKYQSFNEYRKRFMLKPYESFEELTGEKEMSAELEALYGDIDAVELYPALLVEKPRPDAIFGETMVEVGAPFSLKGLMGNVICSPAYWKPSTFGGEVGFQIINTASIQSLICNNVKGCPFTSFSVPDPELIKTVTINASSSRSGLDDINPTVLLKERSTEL
Experimental: Next, the possible role of the bioactive fragment in the complexes was studied.
The IC50 value was obtained using GraphPad Prism 7 software. All of the inhibitor assays were performed at least in triplicate.

[5] = Octanol–water partition coefficient (shake-flask, UV–vis); type: physicochemical; conditions: T = 21 °C
Experimental: The solubility of the complexes in D2O was assessed using ^1H NMR spectroscopy (see Table 1 and the Experimental Section for details). […] Data from the literature for the related nonfunctionalized complexes [2′,3′]CF3SO3 are compiled in Table 1 for comparison.[11] The octanol–water partition coefficients (Log Pow) were measured using a UV–vis method and fall within the −0.2 to +1.2 range (Table 1). […] For instance, Log Pow values of 1.07 and 0.65 are obtained for the geometric isomers [9]CF3SO3 and [10]CF3SO3, respectively. […]
Determination of partition coefficients (Log P ow)
Partition coefficients ( Pow; IUPAC: K D partition constant, 7,8 defined as Pow = corg/caq, where corg and caq are the molar concentrations of the selected compound in the organic and aqueous phases, respectively, were determined by the shake-flask method and UV-Vis measurements. 9 Values of Log Pow for diiron complexes are compiled in Table 2. All the operations were carried out at 21±1 °C. De -ionised water and 1-octanol were mixed and vigorously stirred for 24 hours at room temperature to allow saturation of both phases, then separated by centrifugation and used for the following experiments. A solution of the selected Fe compound in the organic phase (V = 5 mL) was prepared and its UV-Vis spectrum was recorded. An aliquot of the solution (Vorg = 1.5 mL) was then transferred into a test tube and the aqueous phase (Vorg = Vaq = 1.5 mL) was added. The mixture was vigorously stirred for 20 minutes and the resulting emulsion was centrifuged (5000 rpm, 10’). […]
(§1) the organic phase was recorded. The procedure was repeated three times for each compound. The partition coefficient was then calculated as PPow = AorgA0,org − Aorg, where A0,org and Aorg are the absorbance values in the organic phase, respectively before and after mixing with the aqueous phase. 9 UV-Vis measurements were carried out using 1 cm PMMA cuvettes. The wavelength of the maximum absorption of each compound was used for UV-Vis quantification.

[6] = Stability in cell culture medium at 37 °C by NMR; type: physicochemical; conditions: after 72 h
Experimental: Complexes [3]CF3SO3, [5]CF3SO3, and [8]CF3SO3 were selected for an evaluation of their stability in the culture medium. Compounds were dissolved in DMSO-d6, and these solutions were diluted with the cell culture medium and stored at 37 °C. According to NMR spectroscopy, progressive release of the bioactive fragment occurred over 72 h, affording [3′]^+ from [3]CF3SO3 and [5′]^+ from [5]CF3SO3 (Figures S41 and S42). […] Overall, these findings indicate that the diiron scaffold decorated with biofunctionalized vinyliminium ligands is robust in aqueous media, with a tendency to progressively release the bioactive moiety in the medium used in cytotoxicity studies.
[8]CF3SO3, after 24 h: [3']+ and chlorambucil species ([8OH]+ + [8 2OH]+) (ratio 5:2). From [8]CF3SO3, after 72 h:
[3']+ and chlorambucil species ([82OH]+) (ratio 7:2).
Determination of partition coefficients (Log P ow) […]
as §1, with “The procedure was repeated three times for each compound.” left out, “9 UV-Vis measurements were carried out using 1 cm PMMA cuvettes.” left out

[7] = Stability in D2O/DMSO at 37 °C by 1H NMR; type: physicochemical; conditions: for stability (%), residual percent of complex / stability (%), residual percentage of the complex: D2O/DMSO 2/1 v/v; for stability (%), total percentage of diiron complexes with a chlorambucil-like group: D2O/DMSO 1/1 v/v
Experimental: Conversely, [3–7]CF3SO3, containing either {Aryl–OCOAsp} or {Aryl-NHCOAsp} moieties, were stable under the same conditions. […] Complete conversion into the bis-hydroxide [8^2OH]^+ was achieved within 72 h. Similarly, [9,10]CF3SO3 undergo activation of the {C–Cl} bonds to give mixtures of the partially Cl/OH substituted species [9^OH]^+ and [10^OH]^+ and the fully substituted species [9^2OH]^+ and [10^2OH]^+.

[8] = test system: Human Ovarian Carcinoma Cisplatin Resistant (A2780cisR) cell line; assay: MTT cytotoxicity, A2780cisR; type: cell-based; conditions: 72 h exposure, mean ± SD
Excerpt: (§2) Human ovarian carcinoma (A2780 and A2780cisR) cell lines were obtained from the European Collection of Cell Cultures. The Human Embryonic Kidney 293T (HEK 293T) cell line was obtained from the ATCC (Sigma, Buchs, Switzerland). Penicillin–streptomycin, RPMI 1640 GlutaMAX (where RPMI = Roswell Park Memorial Institute), and DMEM GlutaMAX media (where DMEM = Dulbecco’s modified Eagle medium) were obtained from Life Technologies, and fetal bovine serum (FBS) was obtained from Sigma. The cells were cultured in RPMI 1640 GlutaMAX (A2780 and A2780cisR) and DMEM GlutaMAX (HEK 293T) media containing 10% heat-inactivated FBS and 1% penicillin–streptomycin at 37 °C and CO2 (5%). The A2780cisR cell line was routinely treated with cisplatin (2 μM) in the media to maintain cisplatin resistance. The cytotoxicity was determined using the 3-(4,5-dimethyl-2-thiazolyl)-2,5-diphenyl-2H-tetrazolium bromide (MTT) assay.[42] Cells were seeded in flat-bottomed 96-well plates as a suspension in a prepared medium (100 μL aliquots and approximately 4300 cells/well) and preincubated for 24 h. Stock solutions of compounds were prepared in DMSO and were diluted in the medium. The solutions were sequentially diluted to give a final DMSO concentration of 0.5% and a final compound concentration range of 0–200 μM. Cisplatin was tested as a positive (0–100 μM) control. The compounds were placed in the preincubated 96-well plates in 100 μL aliquots, and the plates were incubated for a further 72 h. MTT (20 μL, 5 mg/mL in Dulbecco’s phosphate buffered saline) was placed in the cells, and the plates were incubated for a further 4 h. The culture medium was aspirated, and the purple formazan crystals, formed by the mitochondrial dehydrogenase activity of vital cells, were dissolved in DMSO (100 μL/well). The absorbance of the resulting solutions, directly proportional to the number of surviving cells, was quantified at 590 nm using a SpectroMax M5e multimode microplate reader (using SoftMax Pro software, version 6.2.2). The percentage of surviving cells was calculated from the absorbance of wells corresponding to the untreated control cells. The reported IC50 values are based on the means from two independent experiments, each comprising four tests per concentration level.

[9] = test system: Human Embryonic Kidney 293T (HEK 293T) cell line; assay: MTT cytotoxicity, HEK 293T; type: cell-based; conditions: 72 h exposure, mean ± SD
Excerpt: as §2

[10] = test system: Human Ovarian Carcinoma (A2780) cell line; assay: MTT cytotoxicity, A2780; type: cell-based; conditions: 72 h exposure, MTT, mean ± SD
Excerpt: as §2

[11] = Solubility in D2O by 1H NMR; type: physicochemical; conditions: Me2SO2 internal standard, T = 21 °C
Experimental: The solubility of the complexes in D2O was assessed using ^1H NMR spectroscopy (see Table 1 and the Experimental Section for details). […] Data from the literature for the related nonfunctionalized complexes [2′,3′]CF3SO3 are compiled in Table 1 for comparison.[11] The octanol–water partition coefficients (Log Pow) were measured using a UV–vis method and fall within the −0.2 to +1.2 range (Table 1). […] For instance, Log Pow values of 1.07 and 0.65 are obtained for the geometric isomers [9]CF3SO3 and [10]CF3SO3, respectively.

[12] = test system: cancer cell lines; conditions: cited from earlier work
[13] = deuterated aqueous medium, 37 °C

## CC(=O)Oc1ccccc1C(=O)O [aspirin, acetylsalicylic acid]
[1]
  IC50: > 200 µM
[2]
  IC50: > 200 µM
[3]
  IC50: > 200 µM

## O=C(O)CCCc1ccc(N(CCCl)CCCl)cc1 [chlorambucil]
[1]; ref 22b
  IC50: 5.2 ± 1.6 µM
[2]; ref 22b
  IC50: 25 ± 4 µM

## [Fe2Cp2(CO)(μ-CO){μ-η^1:η^3-Cγ(3-C6H4NHC(=O)C6H4OC(=O)Me)CβHCαNMe2}]CF3SO3 [[5]CF3SO3]
[4]
  IC50: 10 ± 2 µM
[5]
  Log Pow: –0.10 ± 0.01
[6]
  dissociation of the bioactive fragment: complete dissociation
[7]; 24 h at 37 °C
  stability (%), residual percent of complex: 69%
[8]
  IC50: 45 ± 1 µM
[9]
  IC50: 89.9 ± 0.3 µM
[10]
  IC50: 43 ± 6 µM

## [Fe2Cp2(CO)(μ-CO){μ-η^1:η^3-Cγ(CH2OC(=O)C6H4OC(=O)Me)CβHCαNMe(Xyl)}]CF3SO3 [[2]CF3SO3]
[4]
  IC50: 84 ± 2 µM
[5]
  Log Pow: 0.40 ± 0.01
[7]; 24 h at 37 °C
  stability (%), residual percent of complex: 85%
[7]; 72 h at 37 °C
  stability (%), residual percentage of the complex: 69%
[7]; deuterated aqueous medium, 37 °C, 24 h
  release of aspirin from the linkage: approximately 20%
[8]
  IC50: 14 ± 1 µM
[9]
  IC50: 9.2 ± 0.5 µM
[11]
  solubility: <1 × 10^–4 mol L^–1
[10]
  IC50: 13 ± 2 µM

## [Fe2Cp2(CO)(μ-CO){μ-η^1:η^3-Cγ(3-C6H4OC(=O)C6H4OC(=O)Me)CβHCαNMe2}]CF3SO3 [[3]CF3SO3]
[4]
  IC50: 71 ± 1 µM
[5]
  Log Pow: 0.24 ± 0.01
[7]; 24 h at 37 °C
  stability (%), residual percent of complex: 81%
[7]; 72 h at 37 °C
  stability (%), residual percentage of the complex: 57%
[8]
  IC50: 21 ± 5 µM
[9]
  IC50: 42 ± 6 µM
[10]
  IC50: 24 ± 5 µM

## [Fe2Cp2(CO)(μ-CO){μ-η^1:η^3-Cγ(3-C6H4NHC(=O)C6H4OC(=O)Me)CβHCαNMe(Xyl)}]CF3SO3 [[6]CF3SO3]
[4]
  IC50: 66 ± 2 µM
[5]
  Log Pow: 0.80 ± 0.02
[7]; 24 h at 37 °C
  stability (%), residual percent of complex: 91%
[8]
  IC50: 7 ± 2 µM
[9]
  IC50: 7.2 ± 0.9 µM
[11]
  solubility: <1 × 10^–4 mol L^–1
[10]
  IC50: 6.5 ± 0.8 µM

## [Fe2Cp2(CO)(μ-CO){μ-η^1:η^3-Cγ(4-C6H4NHC(=O)(CH2)3C6H4N(CH2CH2Cl)2)CβHCαNMe2}]CF3SO3 [[10]CF3SO3]
[5]
  Log Pow: 0.65 and 0.65 ± 0.02
[7]; 24 h at 37 °C
  stability (%), total percentage of diiron complexes with a chlorambucil-like group: 93%
[7]; 72 h at 37 °C
  stability (%), total percentage of diiron complexes with a chlorambucil-like group: 85%
[8]
  IC50: 15 ± 5 µM
[9]
  IC50: 30 ± 1 µM
[11]
  solubility: <1 × 10^–4 mol L^–1
[10]
  IC50: 6.4 ± 1.4 µM

## N.N.[Cl][Pt][Cl] [cisplatin, reference compound]
[8]
  IC50: 7.9 ± 0.1 µM
[9]
  IC50: 2.6 ± 0.4 µM
[10]
  IC50: 0.6 ± 0.1 µM

## [Fe2Cp2(CO)(μ-CO){μ-η^1:η^3-Cγ(3-C6H4OC(=O)(CH2)3C6H4N(CH2CH2Cl)2)CβHCαNMe2}]CF3SO3 [[8]CF3SO3]
[5]
  Log Pow: 1.2 ± 0.2
[7]; 24 h at 37 °C
  stability (%), total percentage of diiron complexes with a chlorambucil-like group: 84%
[7]; 72 h at 37 °C
  stability (%), total percentage of diiron complexes with a chlorambucil-like group: 77%
[7]; [13]
  stability of the linkage to the bioactive fragment (hydrolysis): did not undergo hydrolysis
  time to complete conversion into the bis-hydroxide (Cl/OH exchange): ≤ 72 h
[8]
  IC50: 23 ± 3 µM
[9]
  IC50: 20 ± 9 µM
[11]
  solubility: <1 × 10^–4 mol L^–1
[10]
  IC50: 4.7 ± 0.4 µM

## [Fe2Cp2(CO)(μ-CO){μ-η^1:η^3-Cγ(4-C6H4NHC(=O)C6H4OC(=O)Me)CβHCαNMe2}]CF3SO3 [[7]CF3SO3]
[4]
  IC50: 20 ± 2 µM
[5]
  Log Pow: –0.19 ± 0.01
[7]; 24 h at 37 °C
  stability (%), residual percent of complex: 70%
[8]
  IC50: 87 ± 10 µM
[9]
  IC50: > 100 µM
[10]
  IC50: 71 ± 14 µM

## C#CCOC(=O)c1ccccc1OC(C)=O [ALK^A1]
[12]
  activity toward cancer cell lines: absence of activity

## [Fe2Cp2(CO)2(μ-CO){μ-CNMe(R)}]CF3SO3 (R = Xyl = 2,6-C6H3Me2) [[1b]CF3SO3]
[1]
  IC50: 9.3 ± 0.7 µM

## [Fe2Cp2(CO)2(μ-CO){μ-CNMe(R)}]CF3SO3 (R = Me) [[1a]CF3SO3]
[1]
  IC50: > 200 µM
  IC50 A2780: not active
